pIC50: −log10 of the molar value.
Assays:
[1] = target: Tubulin alpha chain (Sus scrofa) (UniProt P02550); assay: Inhibition of [3H]colchicine binding to tubulin at a concentration of 5.0 uM
[2] = tested on: CA46; assay: Cytotoxicity was determined by inhibition against the Burkitt lymphoma CA46 cell line; assay type: functional, cell-based; conditions: Homo sapiens
[3] = target: Tubulin alpha chain (Sus scrofa, UniProt P02550); assay: Compound was evaluated for inhibition of tubulin polymerization; assay type: functional
Sequence of Tubulin alpha chain (P02550 whole entry, looked up): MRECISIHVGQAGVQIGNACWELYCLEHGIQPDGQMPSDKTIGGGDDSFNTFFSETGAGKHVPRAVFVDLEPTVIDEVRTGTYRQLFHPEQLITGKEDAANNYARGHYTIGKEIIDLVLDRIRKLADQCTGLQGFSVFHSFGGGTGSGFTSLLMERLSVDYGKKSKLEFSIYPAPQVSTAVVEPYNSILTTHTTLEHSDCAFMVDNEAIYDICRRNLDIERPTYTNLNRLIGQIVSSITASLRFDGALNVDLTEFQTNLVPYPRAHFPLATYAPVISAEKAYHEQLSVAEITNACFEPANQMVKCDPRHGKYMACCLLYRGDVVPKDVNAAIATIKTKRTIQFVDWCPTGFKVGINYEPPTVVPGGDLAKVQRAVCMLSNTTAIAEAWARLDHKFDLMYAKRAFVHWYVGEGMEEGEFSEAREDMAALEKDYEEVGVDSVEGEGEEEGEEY

[4] = target: Tubulin alpha chain (Sus scrofa) (UniProt P02550); assay: Inhibition of [3H]colchicine binding to tubulin at a concentration of 50 uM
[5] = tested on: MCF7; assay: Cytotoxicity was determined by inhibition of cell growth of MCF-7 human breast carcinoma cell; assay type: functional, cell-based

Sequence of Tubulin alpha chain (Sus scrofa) (P02550 whole entry, looked up): as above

Structure (SMILES) | inhibition [1] | pIC50 [3] | inhibition [4] | pIC50 [2] | pIC50 [5]
COc1ccc2c(C(O)c3ccc(OC)c(O)c3)c(-c3cc(OC)c(OC)c(OC)c3)sc2c1 (configuration not stated) | 5% | 5.21 | 73% | < 6.00 | 
COc1ccc(C2=C(c3cc(OC)c(OC)c(OC)c3)CCS2)cc1O | 64% | 5.44 | 88% |  | 6.41
COc1ccc(-c2sccc2C(=O)c2cc(OC)c(OC)c(OC)c2)cc1O | 67% | 6.00 |  |  | 6.52
COc1ccc2c(C(=O)c3cc(OC)c(OC)c(OC)c3)c(-c3ccc(OC)c(O)c3)sc2c1 | 21% |  |  |  | 

Second part, led by results:

inhibition [1] | pIC50 [3] | inhibition [4] | Structure (SMILES) | pIC50 [2] | pIC50 [5]
26% | 5.06 | 74% | COc1ccc(C(O)c2ccsc2-c2cc(OC)c(OC)c(OC)c2)cc1O (configuration not stated) |  | 6.30
 | < 4.40 |  | COc1ccc(C(=O)c2ccsc2-c2cc(OC)c(OC)c(OC)c2)cc1O |  | 
